According to US20160158309A1, “EXERCISE FUNCTION ENHANCER” (KOHJIN LIFE SCIENCES CO., LTD., priority 2014, published 2016):
Entries after “also recorded” stand apart in the source; their conditions may differ.

Experiments:
[1] = Muscle tissue pH after treadmill exercise in mice; type: in vivo, ICR mice; details: exercise group vs control exercise group; oral once a day for two weeks, 2.0% solution 5 μl/g body weight; treadmill 30 minutes at 25 m/min; tibialis anterior and gastrocnemis muscle
Procedure: After anesthetic, intermuscular pH of the tibialis anterior muscle and the gastrocnemis muscle was measured using a micro-glass electrode (CMN-141, Chemical Instruments).
The experiment was conducted using 7-week-old male ICR mice (Shimizu Laboratory Supplies). After one week of preliminary care, the mice were separated into two groups based on body weight: a glutathione group (n=21) and a control group (n=21). Glutathione (KOHJIN Life Sciences Co., Ltd.) was prepared in a 2.0% solution and was administered orally once a day for two weeks to the glutathione group at a dose of 5 μl/g of body weight. The same amount of distilled water was administered orally to the control group for the same period of time. […] On the final day, the groups were further divided into a control sedentary group (n=13), a control exercise group (n=8), a glutathione sedentary group (n=13), and a glutathione exercise group (n=8). The exercise groups were given the task of running on a treadmill, after which all groups were dissected.
The exercise task employed a treadmill (MK680, Muromachi Kikai). On the day of the exercise task, the sedentary groups were dissected without performing the exercise task, while the exercise groups were given the task of running on a treadmill for 30 minutes at a speed of 25 m/min, then were dissected immediately after completing the exercise task.
All of the data was plotted with the mean value±standard error. After performing a two-way analysis of variance in comparing the four groups, a multiple comparison test (Bonferroni) was performed. Student's t-distribution test was performed when comparing two groups. Level of significance was defined at 5%.

[2] = tested on: PGC-1α; test: PGC-1α amount in soleus muscle by western blot; type: in vivo, ICR mice; details: treated vs control groups; oral once a day for two weeks, 2.0% solution 5 μl/g body weight; sedentary group soleus muscle
Procedure: An amount of PGC-1α in the muscles was measured using a western blot test. Soleus muscle of a sedentary group was homogenized and protein concentration was measured using the BCA method (BCA™ Protein Assay Kit, Thermo [sequence]). The prepared protein sample was poured into 10% gel (Wako), was separated by electrophoresis, and was transferred to a membrane using a transfer device (iBlot, Invitrogen). After 30 minutes of blocking (EzBlokChemi, ATTO CORPORATION), the sample was cleaned three times for five minutes each in Tris buffered saline-(BIO-RAD Laboratories) Tween 20 (Wako) (TBST), and was reacted with a primary antibody using an anti-PGC-1α antibody (CHEMICON International) for 60 minutes at room temperature. The sample was then cleaned three times for five minutes each in TBST and was reacted with a secondary antibody using anti-rabbit antibody (GE Healthcare) for 60 minutes at room temperature. The sample was then cleaned three times for five minutes each in TBST and was reacted with a coloring agent (ECL plus, GE Healthcare) for four minutes. Using an image analysis device (ImageQuant LAS 4000, GE Healthcare), bands were detected and converted to numerical values. Thereafter, a relative ratio with respect to a control set was calculated.
The experiment was conducted using 7-week-old male ICR mice (Shimizu Laboratory Supplies). After one week of preliminary care, the mice were separated into two groups based on body weight: a glutathione group (n=21) and a control group (n=21). […] The same amount of distilled water was administered orally to the control group for the same period of time. A twelve-hour light/dark cycle was maintained in the enclosure and the mice were able to freely take food and water from a plastic gauge. On the final day, the groups were further divided into a control sedentary group (n=13), a control exercise group (n=8), a glutathione sedentary group (n=13), and a glutathione exercise group (n=8). The exercise groups were given the task of running on a treadmill, after which all groups were dissected. […]

Row | SMILES | Muscle tissue pH [1] | PGC-1α expression in the soleus muscles (relative ratio to control) [2]
1 | N[C@@H](CCC(=O)N[C@@H](CS)C(=O)NCC(=O)O)C(=O)O [glutathione, γ-L-Glu-L-Cys-Gly] | significantly higher value; also recorded: no reduction in muscle tissue pH was observed | significantly higher value; also recorded: an increase in PGC-1α expression
2 | O=C1O[C@H]([C@@H](O)CO)C(O)=C1O [vitamin C] | not observed | not observed
